The values that follow are results of earlier work, collected in patent EP4233849A1, “PHARMACEUTICAL COMPOSITION COMPRISING POMALIDOMIDE” (KRKA, d.d., Novo mesto, priority 2022, dated 2023).

Each structure is given as a SMILES string. Like-named read-outs stand apart in the source and are kept apart here.

The conditions of series [1]: accelerated and room temperature conditions; anhydrous lactose, microcrystalline cellulose, anhydrous dibasic calcium phosphate, croscarmellose sodium, magnesium stearate.
For series [2] the following is noted: according to BCS classification.

With `Nc1cccc2c1C(=O)N(C1CCC(=O)NC1=O)C2=O` (racemic) [Pomalidomide, (RS) 4-Amino-2-(2,6-dioxopiperidin-3-yl)isoindole-1,3-dione], in series [1], the “stability in the presence of particular excipients” value is listed as “instability problems”. Moreover, the solubility result (in absolute ethanol, ethyl acetate, heptane, methanol, 2-propanol and toluene) is given as “very slightly soluble”; the solubility result (in acetone, acetonitrile, methylene chloride, methyl ethyl ketone and tetrahydrofuran) is reported as “slightly soluble”; the solubility entry (in water) is reported as “practically insoluble”; the solubility result in series [2] is “low solubility”.
